Results from ChEMBL document CHEMBL1201862, “PubChem BioAssay data set” (2004).
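96-well plates; 48 h exposure; 5 concentrations. Endpoints by linear interpolation between flanking doses. Not reached: highest tested concentration assigned. GI50 marks 50% less growth.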 Active and inactive are the calls of the source. Cut-off read from the data, not from the text of the source: active = GI50 up to about 1.1 µM and inactive = higher.

Experiments:
Test in all cases: NCI tumour cell line growth inhibition, 48 h
OVCAR-5 = system: OVCAR-5
NCI-H522 = system: NCI-H522
KM12 = system: KM12
COLO 205 = system: COLO 205
SR = system: SR
IGROV-1 = system: IGROV-1
SF-268 = system: SF-268
Malme-3M = system: Malme-3M
UACC-257 = system: UACC-257
SF-295 = system: SF-295
LOX IMVI = system: LOX IMVI
SNB-19 = system: SNB-19
HT-29 = system: HT-29
M14 = system: M14
SK-OV-3 = system: SK-OV-3
SK-MEL-2 = system: SK-MEL-2
CCRF-CEM = system: CCRF-CEM
A498 = system: A498

Measured: GI50

NC(=O)C(=O)C1C(=O)N(c2ccccc2)N=C1N (stereo unspecified)
inactive: OVCAR-5 > 100 µM | NCI-H522 > 100 µM | KM12 > 100 µM | COLO 205 > 100 µM | SR > 100 µM | IGROV-1 > 100 µM | SF-268 > 100 µM | Malme-3M > 100 µM | UACC-257 > 100 µM | SF-295 > 100 µM | LOX IMVI > 100 µM | SNB-19 > 100 µM | HT-29 > 100 µM | M14 > 100 µM | SK-OV-3 > 100 µM | SK-MEL-2 > 100 µM

O=S(=O)(N/N=C/c1cccc(/C=N/NS(=O)(=O)c2ccccc2)c1)c1ccccc1
inactive: OVCAR-5 > 100 µM | KM12 58.6 µM | COLO 205 38.3 µM | SR 58.1 µM | IGROV-1 69.2 µM | SF-268 > 100 µM | Malme-3M > 100 µM | UACC-257 39.3 µM | SF-295 28 µM | LOX IMVI 30 µM | HT-29 86.1 µM | CCRF-CEM 76.4 µM | M14 > 100 µM | SK-OV-3 > 100 µM | A498 > 100 µM | SK-MEL-2 > 100 µM

Cc1[nH]c2ccccc2c1-c1n[nH]c(=O)c2ccccc12
inactive: OVCAR-5 46.5 µM | KM12 11.3 µM | IGROV-1 31.5 µM | Malme-3M 22.3 µM | UACC-257 25.1 µM | SF-295 23.3 µM | HT-29 24.1 µM | CCRF-CEM 22.9 µM | M14 21 µM | SK-OV-3 25.1 µM | A498 19.8 µM | SK-MEL-2 31.7 µM

CC(C)OC(=O)c1cccnc1/C=N/O
inactive: OVCAR-5 > 100 µM | NCI-H522 > 100 µM | KM12 > 100 µM | COLO 205 > 100 µM | IGROV-1 > 100 µM | SF-268 > 100 µM | Malme-3M > 100 µM | UACC-257 > 100 µM | SF-295 88.5 µM | LOX IMVI > 100 µM | SNB-19 > 100 µM | HT-29 > 100 µM | CCRF-CEM > 100 µM | M14 > 100 µM | SK-OV-3 > 100 µM | A498 > 100 µM | SK-MEL-2 > 100 µM

CN(C)CC1(C)CC/C(=C\c2ccc3c(c2)OCO3)C1=O (stereo unspecified)
inactive: OVCAR-5 > 100 µM | NCI-H522 39.5 µM | KM12 > 100 µM | COLO 205 > 100 µM | SR 45.9 µM | IGROV-1 > 100 µM | SF-268 > 100 µM | Malme-3M > 100 µM | UACC-257 > 100 µM | SF-295 > 100 µM | LOX IMVI > 100 µM | SNB-19 > 100 µM | HT-29 > 100 µM | CCRF-CEM 59.4 µM | M14 > 100 µM | A498 > 100 µM | SK-MEL-2 > 100 µM

COC(=O)c1ccccc1N1C(=O)Cc2ccccc2C1=O
inactive: OVCAR-5 > 100 µM | KM12 > 100 µM | COLO 205 > 100 µM | SR > 100 µM | IGROV-1 > 100 µM | SF-268 55.1 µM | Malme-3M > 100 µM | UACC-257 > 100 µM | SF-295 45.4 µM | SNB-19 > 100 µM | HT-29 > 100 µM | SK-OV-3 42.9 µM | SK-MEL-2 > 100 µM

Clc1ccc2c(c1)-c1c3c(nn1-c1ccccc1)-c1ccccc1SC3O2 (stereo unspecified)
inactive: OVCAR-5 > 100 µM | NCI-H522 29 µM | KM12 > 100 µM | COLO 205 > 100 µM | IGROV-1 > 100 µM | SF-268 > 100 µM | Malme-3M > 100 µM | UACC-257 > 100 µM | SF-295 > 100 µM | LOX IMVI 71.3 µM | HT-29 > 100 µM | CCRF-CEM 44.9 µM | SK-OV-3 > 100 µM | A498 > 100 µM | SK-MEL-2 > 100 µM

CCOC(=O)/C=C1\CCCC12OCCO2
inactive: NCI-H522 2.87 µM | KM12 > 100 µM | COLO 205 > 100 µM | SR 25.8 µM | IGROV-1 > 100 µM | SF-268 > 100 µM | Malme-3M > 100 µM | UACC-257 > 100 µM | SNB-19 > 100 µM | CCRF-CEM > 100 µM | M14 > 100 µM | SK-OV-3 > 100 µM | A498 > 100 µM | SK-MEL-2 > 100 µM

NC1CCC2(O)c3ccccc3C2C1 (stereo unspecified)
inactive: NCI-H522 > 100 µM | KM12 > 100 µM | COLO 205 > 100 µM | SR > 100 µM | SF-268 > 100 µM | Malme-3M > 100 µM | UACC-257 > 100 µM | SF-295 > 100 µM | LOX IMVI > 100 µM | SNB-19 > 100 µM | HT-29 > 100 µM | CCRF-CEM > 100 µM | M14 > 100 µM | SK-OV-3 > 100 µM | SK-MEL-2 > 100 µM

CSc1nc2c(nc(N)n2C2OC(COC(C)=O)C(OC(C)=O)C(OC(C)=O)C2OC(C)=O)c(=O)n1C (stereo unspecified)
inactive: OVCAR-5 > 100 µM | KM12 > 100 µM | COLO 205 > 100 µM | IGROV-1 > 100 µM | Malme-3M > 100 µM | UACC-257 > 100 µM | SF-295 > 100 µM | LOX IMVI > 100 µM | SNB-19 > 100 µM | HT-29 > 100 µM | CCRF-CEM > 100 µM | M14 > 100 µM | SK-OV-3 > 100 µM | A498 > 100 µM | SK-MEL-2 > 100 µM

NC1CCCCC1.O=C(O)C1(P(=O)(O)O)CC1
inactive: NCI-H522 > 100 µM | KM12 > 100 µM | COLO 205 > 100 µM | IGROV-1 > 100 µM | SF-268 > 100 µM | Malme-3M > 100 µM | UACC-257 > 100 µM | SF-295 > 100 µM | SNB-19 > 100 µM | CCRF-CEM > 100 µM | M14 25.5 µM | SK-OV-3 > 100 µM | A498 > 100 µM | SK-MEL-2 > 100 µM

CC(C)C(C(=O)O)N(CC1(O)OCC(O)C(O)C1O)N=O (stereo unspecified)
inactive: OVCAR-5 > 100 µM | NCI-H522 > 100 µM | KM12 > 100 µM | COLO 205 > 100 µM | IGROV-1 > 100 µM | Malme-3M > 100 µM | UACC-257 > 100 µM | LOX IMVI > 100 µM | HT-29 > 100 µM | CCRF-CEM > 100 µM | M14 > 100 µM | SK-OV-3 > 100 µM | A498 > 100 µM | SK-MEL-2 > 100 µM

CC1C=CC(C)C2(O)C(=O)NC(O)C12 (stereo unspecified)
inactive: NCI-H522 > 100 µM | KM12 > 100 µM | COLO 205 > 100 µM | SR > 100 µM | IGROV-1 > 100 µM | SF-268 > 100 µM | Malme-3M > 100 µM | UACC-257 > 100 µM | SNB-19 > 100 µM | CCRF-CEM > 100 µM | M14 > 100 µM | SK-OV-3 > 100 µM | A498 > 100 µM | SK-MEL-2 > 100 µM

CC(=O)OC1COC(n2c(=S)n(-c3ccc(C)cc3)c(=O)c3ccccc32)C(OC(C)=O)C1OC(C)=O (stereo unspecified)
inactive: OVCAR-5 > 100 µM | NCI-H522 > 100 µM | KM12 > 100 µM | COLO 205 > 100 µM | IGROV-1 > 100 µM | SF-268 > 100 µM | Malme-3M > 100 µM | UACC-257 > 100 µM | SF-295 85.5 µM | LOX IMVI > 100 µM | SNB-19 > 100 µM | HT-29 > 100 µM | M14 > 100 µM | SK-OV-3 > 100 µM | A498 > 100 µM | SK-MEL-2 > 100 µM

Cc1ccc(/N=N/c2c(C)nn(-c3ccccc3)c2-c2ccccc2)c(Br)c1
inactive: NCI-H522 97.1 µM | KM12 > 100 µM | SR 6.21 µM | IGROV-1 > 100 µM | SF-268 > 100 µM | Malme-3M > 100 µM | UACC-257 79.8 µM | SF-295 86.5 µM | LOX IMVI 37.2 µM | SNB-19 > 100 µM | HT-29 27.6 µM | CCRF-CEM 21 µM | M14 > 100 µM | SK-OV-3 > 100 µM | A498 > 100 µM | SK-MEL-2 > 100 µM

O=c1c(C(c2ccc([N+](=O)[O-])cc2)c2c(O)c3ccccc3n(-c3ccccc3)c2=O)c(O)c2ccccc2n1-c1ccccc1
inactive: OVCAR-5 51.9 µM | NCI-H522 22.2 µM | KM12 17.7 µM | COLO 205 23.2 µM | SR 9.98 µM | IGROV-1 6.56 µM | SF-268 15.3 µM | Malme-3M 13 µM | SF-295 12.5 µM | LOX IMVI 11.8 µM | SNB-19 7.28 µM | CCRF-CEM 1.51 µM | SK-OV-3 7.38 µM | SK-MEL-2 14.5 µM

S=C1ON=C(c2ccccc2)/C1=C/Nc1ccccc1
inactive: OVCAR-5 > 100 µM | NCI-H522 > 100 µM | KM12 23.2 µM | COLO 205 > 100 µM | IGROV-1 > 100 µM | SF-268 > 100 µM | Malme-3M 77.1 µM | UACC-257 > 100 µM | SF-295 > 100 µM | LOX IMVI > 100 µM | SNB-19 > 100 µM | HT-29 > 100 µM | CCRF-CEM > 100 µM | M14 > 100 µM | SK-OV-3 > 100 µM | A498 5.69 µM | SK-MEL-2 > 100 µM

N#C/C(=C1\SC(C(N)=O)=C(N)N1c1ccccc1)c1nc2ccccc2[nH]1
inactive: OVCAR-5 > 100 µM | NCI-H522 > 100 µM | COLO 205 59 µM | IGROV-1 37.3 µM | SF-268 > 100 µM | Malme-3M > 100 µM | UACC-257 > 100 µM | SF-295 > 100 µM | LOX IMVI 32.2 µM | SNB-19 > 100 µM | HT-29 82.8 µM | CCRF-CEM > 100 µM | M14 > 100 µM | SK-OV-3 > 100 µM | A498 42.6 µM | SK-MEL-2 > 100 µM
